Values of other authors, collected in patent publication US7329495B2 (Board of Regents, the University of Texas System, priority 2004, dated 2008).

Target: KIT protein (c-KIT K642E) (Homo sapiens, UniProt P10721, K642E)
Conditions: human GIST cell line, homozygous exon 13 c-KIT K642E

Sequence of KIT protein (c-KIT K642E) (P10721 26-976 K642E): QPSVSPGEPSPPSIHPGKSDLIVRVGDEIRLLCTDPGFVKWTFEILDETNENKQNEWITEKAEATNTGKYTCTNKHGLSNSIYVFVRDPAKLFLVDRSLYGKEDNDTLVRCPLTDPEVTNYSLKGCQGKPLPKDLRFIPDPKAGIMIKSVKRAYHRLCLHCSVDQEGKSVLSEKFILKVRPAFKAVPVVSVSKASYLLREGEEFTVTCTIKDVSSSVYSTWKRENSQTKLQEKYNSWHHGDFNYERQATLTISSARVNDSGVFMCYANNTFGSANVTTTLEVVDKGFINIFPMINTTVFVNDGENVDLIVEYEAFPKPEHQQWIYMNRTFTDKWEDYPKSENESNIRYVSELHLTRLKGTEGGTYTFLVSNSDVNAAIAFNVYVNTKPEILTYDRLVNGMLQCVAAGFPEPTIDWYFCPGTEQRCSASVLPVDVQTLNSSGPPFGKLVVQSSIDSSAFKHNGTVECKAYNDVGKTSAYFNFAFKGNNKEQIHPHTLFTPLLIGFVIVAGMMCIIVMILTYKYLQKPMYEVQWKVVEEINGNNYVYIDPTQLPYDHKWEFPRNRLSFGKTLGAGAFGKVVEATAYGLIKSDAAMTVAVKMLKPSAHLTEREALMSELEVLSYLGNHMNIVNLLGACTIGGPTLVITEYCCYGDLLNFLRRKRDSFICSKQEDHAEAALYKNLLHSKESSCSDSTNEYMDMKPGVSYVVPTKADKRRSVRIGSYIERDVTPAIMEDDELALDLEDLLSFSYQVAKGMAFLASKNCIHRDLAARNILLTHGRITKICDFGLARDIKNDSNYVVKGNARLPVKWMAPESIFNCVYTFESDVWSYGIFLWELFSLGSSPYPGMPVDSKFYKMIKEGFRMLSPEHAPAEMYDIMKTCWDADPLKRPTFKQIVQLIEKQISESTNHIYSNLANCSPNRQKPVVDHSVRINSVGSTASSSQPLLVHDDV

With Cc1ccc(NC(=O)c2ccc(CN3CCN(C)CC3)cc2)cc1Nc1nccc(-c2cccnc2)n1 [imatinib] as the compound, how does the “constitutive KIT tyrosine phosphorylation after introducing STI571 to the cells” value read?
Its value is “abolished”.
